Measured values as given in article PMC8315116 (Biochemistry, 2021).
“And” between values parts separate entries of the source, which are not always exact repeats. Equal values may be shown once. Read-outs that look alike come from different tables or passages of the source.

How the values were obtained:
human MAT2A [1] = target: T1, human MAT2A (Homo sapiens, UniProt P31153); assay: ATP analogues as alternative substrates of MAT2A; assay type: biochemical; conditions: Figure 5C
human MAT2A [2] = target: T1, human MAT2A; assay: Product inhibition of MAT2A by AdoMet; assay type: biochemical; conditions: non-competitive
human MAT2A [3] = target: T1, human MAT2A; assay: Thermal melt of MAT2A with Sypro Orange and ligands; conditions: 10 mM MgCl2
human MAT2A [4] = target: T1, human MAT2A; assay: HPLC assay of ATPase activity of MAT2A; assay type: biochemical; conditions: 80 μM AdoMet or 10 μM ammonium vanadate
human MAT2A [5] = target: T1, human MAT2A; assay: Triphosphate hydrolysis by MAT2A; assay type: biochemical; conditions: for Km: read-out: Km of triphosphate hydrolysis
human MAT2A [6] = target: T1, human MAT2A; assay: Inhibition of MAT2A by PNP or PPNP; conditions: non-competitive
human MAT2A [7] = target: T1, human MAT2A; conditions: varied substrate; fits to data of Fig. 2
human MAT2A [8] = target: T1, human MAT2A; assay: Inhibition of MAT2A by ATP and triphosphate analogues; assay type: biochemical
[9] = 1 mM methionine and 200 μM ATP, NO = no significant inhibition observed

T1 sequence (P31153 whole entry): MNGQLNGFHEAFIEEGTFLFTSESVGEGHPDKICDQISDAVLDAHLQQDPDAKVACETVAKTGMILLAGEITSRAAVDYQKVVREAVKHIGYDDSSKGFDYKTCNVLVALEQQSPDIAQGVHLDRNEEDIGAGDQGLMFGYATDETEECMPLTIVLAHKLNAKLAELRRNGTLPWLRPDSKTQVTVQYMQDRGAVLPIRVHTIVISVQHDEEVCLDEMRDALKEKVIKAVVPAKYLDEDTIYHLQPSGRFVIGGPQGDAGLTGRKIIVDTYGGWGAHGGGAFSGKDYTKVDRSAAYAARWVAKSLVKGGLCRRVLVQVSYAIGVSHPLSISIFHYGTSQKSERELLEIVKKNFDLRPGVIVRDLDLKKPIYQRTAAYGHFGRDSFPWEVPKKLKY

Molecule: Nc1ncnc2c1ncn2[C@@H]1O[C@H](COP(=O)(O)CP(=O)(O)OP(=O)(O)O)[C@@H](O)[C@H]1O [AMPCPP]
- production of orthophosphate from methionine and ATP analogue (human MAT2A [1]): phosphate formation

Molecule: C[S+](CC[C@H](N)C(=O)[O-])C[C@H]1O[C@@H](n2cnc3c(N)ncnc32)[C@H](O)[C@@H]1O (stereo partly drawn) [AdoMet, S-Adenosyl-L-methionine]
- Ki (human MAT2A [2]; with respect to ATP): 136 ± 7 µM
- Ki (human MAT2A [2]; with respect to methionine): 81 ± 10 µM
- thermal stabilization of MAT2A, in words (human MAT2A [3]): did little to increase MAT2A stability
- effect on the ATPase reaction of MAT2A (human MAT2A [4]): inhibited
- activation of triphosphate hydrolysis (human MAT2A [5]; AdoMet at 150 μM versus no AdoMet): 3.5 fold

Molecule: O=P(O)(O)NP(=O)(O)O [Imidodiphosphate]
- Ki (human MAT2A [6]; Ki, toward ATP): 14 ± 1 µM
- Ki (human MAT2A [6]; Ki, toward methionine): 17 ± 2 µM

Molecule: CSCC[C@H](N)C(=O)O [Methionine]
- shift of thermal melt temperature (Tm) compared to MAT2A alone (human MAT2A [3]): 1-3 °C
- kcat (human MAT2A [7]): 0.27 ± 0.01 s⁻¹

Molecule: O=P(O)(O)NP(=O)(O)NP(=O)(O)O [PNPNP, (α–β, β–γ)-diimido triphosphate]
- shift of thermal melt temperature (Tm) compared to MAT2A alone (human MAT2A [3]): > 50 °C
- Ki (human MAT2A [8]; [9]): 0.12 ± 0.03 µM
- increased affinity compared to PPNP (human MAT2A [8]; PNPNP versus PPNP): ~10 fold
- Ki (human MAT2A [8]; read-out: Ki (inhibitor)): 0.115 µM

Molecule: O=P(O)(O)NP(=O)(O)OP(=O)(O)O [PPNP, Imidotriphosphate]
- Ki (human MAT2A [6]; toward ATP): 0.86 ± 0.06 µM
- Ki (human MAT2A [6]; toward methionine): 0.76 ± 0.07 µM

Molecule: O=P(O)(O)OP(=O)(O)OP(=O)(O)O [Triphosphate]
- thermal stabilization of MAT2A, in words (human MAT2A [3]): large shifts in the Tm
- Ki (human MAT2A [8]; [9]): 3.45 µM and 3.4 µM
- rate of triphosphate hydrolysis (human MAT2A [5]; AdoMet at 150 μM): 0.07 ± 0.01 s⁻¹
- kcat of triphosphate hydrolysis (human MAT2A [5]; AdoMet at 1 mM): 0.033 ± 0.003 s⁻¹
- Km (human MAT2A [5]; AdoMet at 150 μM): 6 ± 2 µM
- Km (human MAT2A [5]; without AdoMet present): 4 ± 2 µM
- rate of triphosphate hydrolysis (human MAT2A [5]; without AdoMet present): 0.020 ± 0.003 s⁻¹

Molecule: O=P(O)(O)OP(=O)(O)O [pyrophosphate]
- thermal stabilization of MAT2A, in words (human MAT2A [3]): large shifts in the Tm

Molecule: phosphate
- thermal stabilization of MAT2A, in words (human MAT2A [3]): did little to increase MAT2A stability
